The values that follow come from US6372917B1, “Biphenylsulfonyl-substituted imidazole derivatives, their preparation process, their use as a drug or diagnostic agent and drug containing them” (Aventis Pharma Deutschland GmbH, priority 1998, dated 2002).

Molecules are shown by their SMILES.

In series [1] the test system is Na+-dependent Cl-/HCO3- exchanger (NCBE). The series is described as follows: Inhibition of the Na+-dependent Cl-/HCO3- exchanger (NCBE) in human endothelial cells (pHi recovery, BCECF fluorescence, FLIPR). The series is classed as cell-based. The following applies: inhibitor concentration 10 μM; human endothelial cells (ECV-304); 50 μM HOE 642 present; 35° C., 2 minutes. As for the experimental part: Inhibition of the Na^+-dependent Cl^−/HCO3^− exchanger (NCBE) in human endothelial cells
Human endothelial cells (ECV-304) were detached from culture bottles with the aid of trypsin/EDTA buffer (0.05/0.02% in phosphate buffer) and, after centrifugation (100 g, 5 min), taken up in a buffered salt solution (mmol/l: 115 NaCl, 20 NH4Cl, 5 KCl, 1 CaCl2, 1 MgSO4, 20 N-(2-hydroxyethyl)piperazine-N-2-ethanesulfonic acid (HEPES), 5 glucose and 1 g/l of bovine serum albumin; pH 7.4). This cell suspension was incubated at 37° C. for 20 min with 5 μM BCECF-acetoxymethyl ester. […] For subsequent fluorescence measurement in an FLIPR (Fluorescent Imaging Plate Reader) 100 μl of this cell suspension having 20,000 cells in each case were pipetted per well into a 96-well microtiter plate and this microtiter plate was centrifuged (100 g, 5 min). […] After addition of the buffer solutions to the dye-loaded, acidified cells in the measurement plate, the rise in the fluorescence intensity, which corresponded to a rise in the pHi, in each well of the microtiter plate was determined. The kinetics were in this case recorded at 35° C. for a period of 2 minutes. The increase in the fluorescence intensities for different concentrations of the compounds according to the invention was related to the two controls and from this the inhibitory action of the substances was determined.

As a reminder, the melting point is the temperature of the solid-liquid transition. As to `CS(=O)(=O)c1cc(-c2ccccc2S(=O)(=O)NC#N)ccc1Cn1c(-c2ccccc2)nc(Cl)c1C=O` [Example 2, 4′-(4-Chloro-5-formyl-2-phenylimidazol-1-ylmethyl)-3′-methanesulfonylbiphenyl-2-sulfonylcyanamide], the melting point was 220 °C (dec.). The “Residual activity of the NCBE at an inhibitor concentration of 10 μM” value in series [1] was 18.3%.
